Patent publication US20080213252A1, “METHODS OF TREATING ITCH” (priority 2007, published 2008)
Where no end group is shown, it is not given here.

What was measured:
[1] = test system: skin of volunteers; test: Psychophysics: itch sensation after insertion of native or reconstituted cowhage spicules into skin; format: in vivo; conditions: human volunteers; for itch evoked by PAR4 peptide agonist incubated with inactivated spicules: spicules incubated with peptide at 10 mM; for blocking of itch and other sensations evoked by mucunain-containing spicules: E64 added during reconstitution of spicules; for itch evoked by substance loaded into inactivated spicules: autoclaved spicules soaked in the substance and dried
Description: Reconstitution of spicules—Native spicules were inactivated by autoclaving for 1 hour and reconstituted with native and recombinant mucunains in the presence or absence of cysteine protease inhibitor, E64. Typically, 50 mg of inactivated spicules were mixed with 0.4 ml of 28 μM mucunain in a 2 ml microfuge tube, vortexed, and dried in a Speed-vac for 2 hours at room temperature. These spicules were then considered as ‘reconstituted’ with the protease alone. Spicules prepared in a similar manner but with E64 added at twice the concentration of mucunain, are considered reconstituted with the protease and the inhibitor.
Psychophysics—These protocols were approved by the Yale University Human Investigation Committee. A row of 10 cowhage spicules were lightly pasted to the flattened end of a Weck-Cel surgical strip, spaced at 1 mm, and applied parallel to the surface of the skin at the mid-volar forearm. […] Every 30 sec, subjects rated the magnitude of each of three qualities of sensation: Itch, pricking/stinging, and burning using the Generalized Labeled Magnitude Scale (Bartoshuk et al. 2004) that employs appropriately placed intensity descriptors of “none”, “barely detectable”, “weak”, “moderate”, “strong”, “very strong” and, at the top of the scale, “the strongest sensation imaginable.” Voltages derived from each subject's movements of a computer mouse that controlled a cursor on a visual representation of this scale were converted to numbers between 0 and 100 and plotted for each quality at successive intervals of 30 s up to 20 min after the insertion of cowhage. Each of nine subjects received, in separate tests, five types of cowhage spicules: native cowhage spicules, heat-inactivated spicules that had been soaked in a solution of cowhage extract containing E64, or the same but without E64, and heat-inactivated spicules that had been previously soaked in a solution of recombinant mucunain containing E64, or the same but without E64. The subject and experimenter were blinded as to the type of spicule administered.
The sensory effects of mucunain was further analyzed. A method of introducing mucunain into the skin of volunteers that would mimic the approach associated with the spicules was developed. Such a method would decrease or eliminate the pain associated with using conventional needles as such nociception might interfere with the sensation of itch. Spicules are inactivated when autoclaved but appear to maintain their physical structure. Inactivated spicules were soaked in a solution containing native or recombinant mucunain and then dried. One gram of fresh spicules was stirred for one hour at 4° C. with 20 ml of 0.1 M potassium phosphate buffer (pH 4.8) and 0.9% NaCl and the liquid removed by filtration through cheesecloth. The spicules were teased from the cheesecloth and autoclaved under dry heat for 30 minutes. The mucuna extract was passed through molecular filters to remove components with molecular weights of less than 9 kD. 50 mg of the inactivated, dried spicules were then soaked in 0.05 ml of the filtered extract containing 0.07 mg of cysteine protease (as determined by non-interfering protein assay) with or without 3.5 micrograms of E-64. The spicules were subsequently dried in a Speed-Vac for 2 hours. These spicules were considered ‘reconstituted’ with one batch containing the cysteine protease and its inhibitor and another batch, the protease alone. An analogous approach was used to load spicules with papain or histamine.

[2] = test system: PAR4; test: PAR activation by cytoplasmic calcium release, ratiometric Fura-2 imaging, PAR4 transfected HeLa cells; format: cell-based, human; conditions: for calcium influx in PAR4 transfected HeLa cells: Fura-2 340:380 ratiometric imaging
Description: PAR activation observed by cytoplasmic calcium release—The four human PAR cDNAs were obtained from commercial sources and cloned into the pcDNA3.1 (−) vector (Invitrogen). HeLa cells were transfected with 10 μg of vector cDNA using Lipofectamine 2000 (Invitrogen) and cultured for two days in 96-well glass bottom plates at 30,000 cells/well. Cells were loaded with Fura-2 as follows. The medium was aspirated and replaced with 100 μl of complete DMEM containing 2 μM Fura-2 (Invitrogen) and kept at room temperature in the dark for 1 hr. The medium was again aspirated and each well received 90 μl of HEPES buffered saline (20 mM HEPES, 115 mM NaCl, 5.4 mM KCl, 2 mM CaCl2, 0.8 mM MgCl2, 13.8 mM glucose, pH 7.4). Plates were observed using a Zeiss Axiovert 200M microscope equipped with a filter wheel for monitoring excitation at 340 and 380 nm. Axiovision software, version 4.6 was used to analyze ratiometric calcium imaging of the cells. Ten μl of protease was applied approximately 20 seconds after the start of excitation. Images were taken every 5 seconds, beginning at time zero, for 3 minutes. The software was used to analyze the 37 images taken during each 3-minute period.

[3] = target: T1, mucunain (Mucuna pruriens, UniProt B2LSD2); test: Chromogenic substrate assay, inhibition of mucunain by E64; format: biochemical, M. pruriens; conditions: native mucunain 0.9 μM, recombinant mucunain 2.7 μM
T1 construct: made in house; host or cells: E. coli ER2566 (pTWIN1MUC1300) for recombinant mucunain; native mucunain extracted from M. pruriens spicules
From the text: Papain served as a control cysteine protease.

T1 sequence (B2LSD2 99-430): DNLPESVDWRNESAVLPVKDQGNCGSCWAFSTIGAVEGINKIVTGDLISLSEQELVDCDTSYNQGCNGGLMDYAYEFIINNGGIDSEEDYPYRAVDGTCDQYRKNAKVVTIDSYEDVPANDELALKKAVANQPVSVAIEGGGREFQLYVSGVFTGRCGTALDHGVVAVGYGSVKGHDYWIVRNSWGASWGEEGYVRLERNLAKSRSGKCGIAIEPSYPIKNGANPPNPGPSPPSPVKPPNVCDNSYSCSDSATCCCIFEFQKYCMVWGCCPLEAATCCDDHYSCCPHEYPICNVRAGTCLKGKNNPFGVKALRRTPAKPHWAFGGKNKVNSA

Molecule	itch evoked by PAR4 peptide agonist incubated with inactivated spicules [1]	calcium influx in PAR4 transfected HeLa cells [2]	itch evoked by substance loaded into inactivated spicules [1]	further results
AYPGKF-NH2	elicited itch	induced calcium influx	–	–
GYPGKF-NH2 [ID; No. 28]	elicited itch	–	–	–
CC(C)C[C@H](NC(=O)[C@H]1O[C@@H]1C(=O)O)C(=O)NCCCCNC(=N)N (relative stereo) [E64, 1-[N-[(L-3-trans-carboxyoxirane-2-carbonyl)-L-leucyl]amino]-4-guanidinobutane]	–	–	–	blocking of Z-FR-pNA cleavage by mucunain [3]: blocked; blocking of itch and other sensations evoked by mucunain-containing spicules [1]: blocked all sensations; blocking of itch and other sensations evoked by mucunain-containing spicules ([1]; listed as E-64): effective in preventing itch; blocking of protease-induced PAR4 activation ([2]; native mucunain, recombinant mucunain and papain in the presence of E64): blocked
NCCc1c[nH]cn1 [histamine]	–	–	produced itch	–
ficin	–	induced calcium influx	–	–
bromelain	–	induced calcium influx	produced itch	–
